“Also recorded” adds a separate entry of the source. Like-named read-outs stand apart in the source and are kept apart here.
Columns and labels:
[1] = cited from earlier work
ependymoblastoma = settings: intratumoral injection(s), up to ten; suspended in 0.4% aqueous methylcellulose in most suitable formulation; cited from earlier work
[2] = delivered systemically; cited from earlier work
T9 gliosarcoma [3] = experiment: Survival of rats bearing intracerebral T9 gliosarcoma after intratumoral BCNU solution; format: in vivo, rat (male CDF, Fischer 344); settings: for % ILS (percent increase in life span): vs control
[4] = Operative mortality following intratumoral injection; format: in vivo, rat (male CDF, Fischer 344); settings: following intratumoral BCNU solution injection; 4/72
Protocol: Rats were anesthetized with ether and pentobarbital sodium (25-30 mg/kg) and placed into the stereotactic frame. The clips and bone wax were carefully removed. The BCNU solution was delivered directly into the tumor through a
Hamilton microsyringe set to the same coordinates and using the same technique as used in the initial tumor implantation. As before, the operative field was cleaned with povidone-iodine solution and the scalp was closed with clips.
The following paradigm was used to assess therapeutic efficacy of the intra-tumorally delivered BCNU antineoplastic solution. All animals received tumor implantation on day zero (0). Controls received no treatment, vehicle controls received a single intratumoral injection of absolute ethanol on day 7. One experimental group received a single injection of intratumoral BCN dissolved in absolute ethanol at a dose of 5 mg/kg body weight on day 7.

Lethal dose of BCNU = format: in vivo; settings: intraperitoneal BCNU in rats
Protocol: All intratumoral injections used this 66.7 mg/ml formulation directly. This concentration is about three to four logs greater than the tumoricidal dose 50%. […] This cannot be extrapolated to man, however, because of differences in cross-species toxicity.

[5] = Stability of BCNU in ethanol, organic vehicles and aqueous solution; format: physicochemical; settings: ethanol vehicle of the exemplary solution
tumor cells = experiment: Tumoricidal dose 50% (TD50) comparison; settings: 66.7 mg/ml BCNU in absolute ethanol
Description: Operationally, where cytotoxic, the antineoplastic agent is preferably dissolved in the organic solvent to a concentration such that when a therapeutically effective volume of the antineoplastic solution of the invention is delivered into a neoplastic mass, there results a dose of the agent solute in said mass of at least two logs greater than its tumoricidal dose 50% (TD50), that is, the concentration of agent in said mass that kills 50% of the tumor cells. This ensures that a supralethal concentration of the agent is delivered throughout at least a substantial volume of the tumor mass when the resulting antineoplastic solution is injected directly into the substance of the tumor. As the organic vehicle permeates the tumor mass it transports a therapeutically effective, neoplastically lethal concentration of the cytotoxic agent solute therewith. In this way high levels of the cytotoxic antineoplastic agent can be delivered discretely and with relative safety to the tumor mass. In another sense the water miscible organic vehicle component of the solution can be considered to increase the solubility of the agent within the tumor mass, thereby allowing therapeutically effective toxic levels of the antineoplastic agent to invest the tumor. […]

T9 gliosarcoma [6] = settings: cited from earlier work
[7] = rat, in vivo; cited from earlier work
[8] = cited from earlier work; remark: listed apart in the source
[9] = cited from earlier work; remark: listed apart in the source
[10] = Group 4: IT BCNU 5 mg/kg day 7 + IP BCNU 5 mg/kg day 12, n=14

## C[C@H]1CC[C@H](NC(=O)N(CCCl)N=O)CC1 [Me-CCNU, 1-(2-chloroethyl)-3-(trans-4-methylcyclohexyl)-1-nitrosourea]
[1]
  water solubility: water insoluble
ependymoblastoma
  increase in life span: only modest increases in life span

## bleomycin
[2]
  organ specific toxicity: lung toxicity

## O=NN(CCCl)C(=O)NCCCl [BCNU, 1,3-bis(2-chloroethyl)-1-nitrosourea]
T9 gliosarcoma [3]; Group 3: single IT BCNU 5 mg/kg in absolute ethanol, day 7, n=42
  % ILS (percent increase in life span): 322%
T9 gliosarcoma [3]; Group 3: single IT BCNU 5 mg/kg, day 7, n=42
  % Cures: 43%
T9 gliosarcoma [3]; Group 3: single intratumoral (IT) injection of BCNU in absolute ethanol, 5 mg/kg, day 7, n=42
  MDS (median day of survival following tumor implantation): 76 days
T9 gliosarcoma [3]; [10]
  % Cures: 36%
  % ILS (percent increase in life span): 472%
T9 gliosarcoma [3]; Group 4: IT BCNU in absolute ethanol 5 mg/kg day 7 + IP BCNU 5 mg/kg in 7.5% aqueous ethanol day 12, n=14
  MDS (median day of survival following tumor implantation): 103 days
T9 gliosarcoma [3]; Groups 3 + 4, 600-700 days
  animals living a normal lifespan: nineteen
T9 gliosarcoma [3]; Groups 3 + 4, days 121, 136, 307, 384
  animals sacrificed healthy, no observable viable T9 gliosarcoma: four
T9 gliosarcoma [3]; Groups 3 + 4 combined, n=56
  % Cures: 41%
  MDS (median day of survival following tumor implantation): 96 days
  % ILS (percent increase in life span): 433%
T9 gliosarcoma [3]; IT + IP vs IT only
  therapeutic benefit of adding intraperitoneal BCNU to intratumoral BCNU solution: did not statistically enhance the therapeutic benefit
T9 gliosarcoma [3]; intratumoral BCNU solution treated group, 600-700 days
  animals which live a normal life span: 41%
T9 gliosarcoma [3]; intratumoral BCNU solution treated group, days 18-24
  animals that die, phase one: 23%
T9 gliosarcoma [3]; intratumoral BCNU solution treated group, days 25 to 166
  animals that die, second phase: 30%
T9 gliosarcoma [3]; intratumoral BCNU solution treated group, days 251-325
  animals that die, third phase: 5%
[4]
  Operative mortality: 5.5%
Lethal dose of BCNU
  dose of 5 mg/kg as percentage of the LD10: ~40%
[5]
  solubility in ethanol: soluble to highly cytotoxic levels in ethanol
  stability and bioavailability in ethanol: remains stable and bioavailable therein
Tumor cells
  concentration of the formulation above the tumoricidal dose 50%: about three to four
T9 gliosarcoma [6]; BCNU 5 mg/kg, delivered intra-arterially
  ILS: 57%
T9 gliosarcoma [6]; BCNU 5 mg/kg, delivered systemically
  improvement in life span: no improvement in life span
T9 gliosarcoma [6]; BCNU 13.3 mg/kg, delivered intravenously or intra-arterially
  ILS: 180%
T9 gliosarcoma [6]; any mode of delivery previously known
  cures in animals bearing this tumor, prior to this experiment: neither BCNU nor any other antineoplastic agent has ever produced cures in animals bearing this tumor; also recorded: neither BCNU nor any other single antineoplastic agent has ever been known to produce a single cure in this tumor model
[7]
  lethal dose 10%: 13.3 mg/kg
[8]
  half life in serum: about 15 minutes
[9]; aqueous solution
  stability in aqueous solution: not very stable in aqueous solution
[9]; ethanol
  stability in ethanol: stable in ethanol
[9]; organic water miscible solvent vehicles, compared with aqueous solution
  stability in organic water miscible solvent vehicles: far more stable in the organic water miscible solvent vehicles
[1]
  water solubility: inherently low water solubility

## COc1cccc2c1C(=O)c1c(O)c3c(c(O)c1C2=O)C[C@@](O)(C(=O)CO)C[C@@H]3O[C@H]1C[C@H](N)[C@H](O)[C@H](C)O1 [adriamycin]
[2]
  organ specific toxicity: cardiotoxicity

## O=NN(CCCl)C(=O)NC1CCCCC1 [CCNU, 1-(2-chloroethyl)-3-cyclohexyl-1-nitrosourea]
[1]
  water solubility: water insoluble
ependymoblastoma
  increase in life span: only modest increases in life span

Source: US5162115A, “Antineoplastic solution and method for treating neoplasms” (priority 1991, dated 1992)
